In patent US20050048508A1, “Trehalose receptor and method for detecting trehalose with the same” (KABUSHIKI KAISHA HAYASHIBARA SEIBUTSU KAGAKU KENKYUJO, priority 2002, published 2005):

Tested on: G protein α-subunits (α15 and α16/Z chimeric protein), no sweet taste receptor
Experiment: Intracellular calcium ion assay, 293 cells expressing G protein α-subunits without sweet taste receptor
Type: cell-based, Mouse, Human
Conditions: 293 cells: G protein α-subunits only, no T1R1/T1R2/T1R3; 0.67 ml of 1 M saccharide solution added to 2 ml cell suspension
Procedure: The coexpression vector for the G protein α-subunit α15 and the G protein α16/Z chimeric protein (hereinafter designated as “G protein α-subunits”) obtained in Example 1-3 was gene transferred to 293 cells, RCB 1637, a human embryonic kidney cell line, available from the Riken Bioresource Center, Ibaraki, Japan, by conventional lipofection. The gene transferred cells were suspended in Dulbecco's Modified Eagle's Medium (D-MEM) supplemented with 1 mg/L of “PUROMYCIN”, a trade mane of puromycin commercialized by Edge Biosystems, MD, USA, and 10% (v/v) of fetal calf serum to give a cell density of 2×10^6 cells/ml and cultured in a plastic petri dish for cell culture. […]
The captioned reactivity test was conducted according to a conventional intracellular calcium ion assay: 293 Cells prepared in Example 3, capable of coexpressing the G protein α-subunits and the sweet taste receptor(s), were cultured in a plastic petri dish for cell culture until reaching its confluent phase. […] Two milliliters of the resultant cell suspension was injected into a glass cuvette, commercialized by Hitachi, Ltd., Tokyo, Japan, and analyzed on “HITACHI 650-40”, a fluorescence spectrophotometer commercialized by Hitachi, Ltd., Tokyo, Japan. […]

Row | Structure (SMILES) | Influx of calcium ion
1 | OC[C@H]1O[C@H](O[C@H]2O[C@H](CO)[C@@H](O)[C@H](O)[C@H]2O)[C@H](O)[C@@H](O)[C@@H]1O [Trehalose] | Negative
2 | OC[C@H]1O[C@@](CO)(O[C@H]2O[C@H](CO)[C@@H](O)[C@H](O)[C@H]2O)[C@@H](O)[C@@H]1O [Sucrose, reference compound] | Negative
